Test results reported in publication PMC12298629, “New Derivatives of Caracasine Acid with Anti-Leukemic Activity and Limited Effectiveness in Spheroid Cultures” (Pharmaceuticals, 2025).

How the values were obtained:
[1] = tested on: A549 spheroids; experiment: Spheroid viability assay (CellTiter-Glo 3D), A549 spheroids; assay type: cell-based; conditions: A549, human tumors spheroids, 72 h, 100 pM to 50 μM
Procedure: (§1) Spheroid culture aims to analyze the drug’s effect on complex structures resembling solid tumors. The spheroids were prepared using the specific nonadherent plates for spheroid formation (Nunc Sphera, Thermo Fisher, Waltham, MA, USA) according to the simple protocol outlined by the manufacturer. The cell lines HCT116 parental, HCT116KOTp53, A549, and U2OS were cultured at a density of 2500 cells per well using medium containing 10% fetal calf serum and antibiotics: McCoy’s 5A medium for HCT116, F-12K (Kaighn’s Modified) for A549, and Dulbecco’s Modified Eagle Medium (DMEM). The cells were grown in culture for 48 h as recommended by the manufacturer and as described by Das et al. and Muñoz-Garcia et al..
(§2) The cell viability of the treated spheroids was assessed using the kit CellTiter-Glo 3D (Promega Corporation, Madison, WI, USA). The kit is designed to measure ATP as an indicator of viability, generating a luminescent readout that is more sensitive than colorimetric or fluorescence-based methods. The spheroids were cultivated with compounds at concentrations ranging from 100 pM to 50 μM in triplicate for 72 h, and the luminescence was measured using the Enspire apparatus (PerkinElmer). A standard curve was performed for each analysis as recommended by the manufacturer.

[2] = tested on: different cell lines (CCRF-CEM, K562, Raji, Ramos, HCT116, HCT116 p53KO, A549, U2OS); experiment: Peroxide formation assessment using DCFDA; assay type: cell-based, human; conditions: compounds at 5-fold the IC50; percentage increase versus negative control
Procedure: The assessment of peroxides was performed as described by Figuero et al. with some modifications. Briefly, the different cell lines, at 10,000 cells per well, were incubated in a sterile 96-well glass-bottom plate from Celvis (München, Germany), which features a black polystyrene frame with high-quality #1.5 glass, suitable for fluorescent assessment. After one hour of incubation in the incubator at 37 °C, 5% CO2, 50 µL of 20 µM 2′,7′-dichlorofluorescein diacetate (DCFDA), Thermo Fisher, was added. The cells were incubated for an additional 30 min to allow for the internalization of the fluorophore. Then, 50 µL of the compounds diluted in media at a concentration 5-fold the IC50 calculated in cytotoxic studies, were added to each well, and the plates were read on an Enspire (PerkinElmer). Fluorescence was measured using the following parameters: excitation at 495 nm and emission at 530 nm. The temperature was maintained at 37 °C, and the readings were taken in bottom mode with three readings per well. Wells containing only RPMI, with 10% FCS, were included as background negative controls. Each experiment was repeated three times on separate occasions (n = 3). Cisplatin was used as a positive control, and the values were calculated based on cells without stimuli (negative control for each cell line). Hydrogen peroxide was used as a possible early marker for apoptosis as described by Miyazato et al..

[3] = tested on: HCT116 par; experiment: Cytotoxic MTS assay, HCT116 parental 2D; assay type: cell-based; conditions: HCT-116, human tumors 2D, 72 h, median of five assays
Source text: (§3) The cancer cell lines used in the cytotoxic assays were acquired from the American Tissue Culture Collection (ATCC) (Manassas, VA, USA) and maintained as described previously. The MRC-5 and BJ human fibroblasts were used as non-tumoral control cells. The (MRC-5 LD and BJ LD) are also human fibroblast cell lines resistant to doxorubicin. […] The Raji and Ramos cell lines correspond to B-cell leukemia. Other cells, such as U2OS, represent a child osteosarcoma, while HCT116 is a colorectal tumor cell line. (HCT116p53^−/−, Horizon Discovery Ltd., Cambridge, UK) is a similar cell line with its p53 gene knocked down, serving as a model of human cancer frequently associated with a poor prognosis. The cells were maintained in Nunc/corning 80 cm^2 plastic tissue culture flasks and cultured in a cell culture medium according to ATCC or Horizon recommendations (McCoy, DMEM/RPMI 1640 with 5 g/L glucose, 2 mM glutamine, 100 U/mL penicillin, […] streptomycin, 10% fetal calf serum, and NaHCO3). The compounds were freshly dissolved in DMSO. The final concentration of DMSO was 0.01% in the cell culture.
(§4) The in vitro cytotoxicity of compounds (1–7) was assessed using the standard 3-(4,5-dimethyl-thiazol-2yl)-5-(3-carboxymethoxyphenyl)-2-(sulfophenyl)-2H-tetrazolium (MTS). The assay was performed at the Institute of Molecular and Translational Medicine using a robotic platform (High-ResBiosolutions, Beverly, MA, USA). Cell suspensions were prepared and diluted according to the specific cell type and the expected target cell density (25,000–35,000 cells/mL, based on cell growth characteristics). An automatic pipettor (30 μL) was used to add cells into 384-well microtiter plates. All tested compounds were dissolved in 100% DMSO, and four-fold dilutions of the intended test concentrations were added in 0.15 μL aliquots at time zero to the microtiter plate wells by the echo acoustic non-contact liquid handler Echo550 (Labcyte, San Jose, CA, USA). The assays were accomplished in technical duplicates and at least three biological replicates. The cells were incubated with the tested compound for 72 h at 37 °C in a 5% CO2 atmosphere with 100% humidity. At the end of the incubation period, cells were assayed using the MTS test. Aliquots (5 μL) of the MTS stock solution were pipetted into each well and incubated for 1–4 h. After this incubation period, the optical density (OD) was measured at 490 nm using an Envision reader (PerkinElmer, Waltham, MA, USA). Tumor cell survival (TCS) was calculated using the following equation: TCS = (OD drug-exposed well/mean OD control wells) × 100%. The IC50 value, representing the concentration of the compound lethal to 50% of the tumor cells, was calculated from the corresponding dose-response curves using Dotmatics software (Updated version 2022, London, UK). After three days of incubation on the cancer cell lines and normal fibroblasts, the […] (IC50) were obtained. Five assays were performed for each cell line. The standard error of the assays was lower than 10%, as assessed by the triplicate assays.

[4] = tested on: HCT116 par spheroids; experiment: Spheroid viability assay (CellTiter-Glo 3D), HCT116 parental spheroids; assay type: cell-based; conditions: HCT-116, human tumors spheroids, 72 h, 100 pM to 50 μM
Procedure: as §1, §2

[5] = tested on: U2OS; experiment: Cytotoxic MTS assay, U2OS 2D; assay type: cell-based; conditions: U2OS, human tumors 2D, 72 h, median of five assays
Source text: as §3, §4

[6] = tested on: MRC-5; experiment: Cytotoxic MTS assay, MRC-5 fibroblasts; assay type: cell-based; conditions: MRC5, human fibroblasts, 72 h, median of five assays
Source text: as §3, §4

[7] = tested on: RAMOS; experiment: Cytotoxic MTS assay, Ramos; assay type: cell-based; conditions: Ramos, human leukemia cell line, 72 h, median of five assays
Source text: as §3, §4

| IC50 [1] | Compound | Peroxide formation (DCFDA) [2] | IC50 [3] | IC50 [4] | IC50 [5] | IC50 [6] | IC50 [7] |
| --- | --- | --- | --- | --- | --- | --- | --- |
| > 50 µM | C=C(C)C1CCC23CC(CCC2C1(C)CCC(=O)O)C(C)C3=O (single isomer, unassigned; ent-3) [Compound 5, Ent-3,4-Seco-15-Oxo-Kaur-4(19)-en-3-Oic Acid] | did not induce peroxide formation | > 50 µM | > 50 µM | > 50 µM | > 50 µM | > 50 µM |
| > 50 µM | C=C(C)C1CCC23CC(CCC2C1(C)CCC(=O)OC(C)=O)C(C)C3=O (single isomer, unassigned; ent-3) [Compound 6, Ent-3,4-Seco-15-Oxo-Kaur-4(19)-en-Acetic Anhydride] | did not induce peroxide formation | > 50 µM | > 50 µM | > 50 µM | > 50 µM | > 50 µM |
| > 50 µM | C=C1C(=O)C23CCC(C(=C)C)C(C)(CCC(=O)OC)C2CCC1C3 (stereo not shown) [Compound 2, Caracasine] | least active | 2.02 µM | > 50 µM | 3.19 µM | 6.84 µM | 0.96 µM |
| > 50 µM | C=C1C(=O)C23CCC(C(=C)C)C(C)(CCC(=O)OC(C)=O)C2CCC1C3 (stereo not shown) [Compound 7, Caracasine-Acetic Anhydride] | most active | 2.12 µM | > 50 µM | 2.21 µM | 6.45 µM | 0.96 µM |
